# In PubChem BioAssay AID1259411 (Chemical Carcinogenesis Research Information System (CCRIS), 2018):
# Activity calls are given as the source filed them. The rule behind the calls is not given here.
# System: rodent carcinogenicity bioassays, tumor incidence
# Assay: CCRIS carcinogenicity studies
# Outline: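 Archive of carcinogenicity, mutagenicity, tumor promotion and tumor inhibition results drawn from journals, NCI reports and other sources, expert-reviewed; covers 1985-2011 and is no longer updated.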
compound,measurement,setting,value
[O-]/[N+](=N\O)c1ccccc1,carcinogen call,"Species: MOUSE, Strain/Sex: B6C3F1/FEMALE, Route: ORAL, Dose: 0, 0.2, 0.4% TWA, IN DIET FOR 78 WK (STUDY DURATION: 95-98 WK), Dose: 0, 0.2, 0.4% TWA, IN DIET FOR 78 WK (STUDY DURATION: 95-98 WK), Tumor Site: Type of Lesion: CIRCULATORY SYSTEM: HEMANGIOSARCOMA OR HEMANGIOMA, LIVER: HEPATOCELLULAR CARCINOMA, HEPATOCELLULAR ADENOMA OR CARCINOMA;, Tumor Site: Type of Lesion: CIRCULATORY SYSTEM: HEMANGIOSARCOMA OR HEMANGIOMA, LIVER: HEPATOCELLULAR CARCINOMA, HEPATOCELLULAR ADENOMA OR CARCINOMA",active; positive
same,carcinogen call,"Species: MOUSE, Strain/Sex: B6C3F1/MALE, Route: ORAL, Dose: 0, 0.2, 0.4% TWA, IN DIET FOR 78 WK (STUDY DURATION: 95-98 WK), Dose: 0, 0.2, 0.4% TWA, IN DIET FOR 78 WK (STUDY DURATION: 95-98 WK), Tumor Site: Type of Lesion: CIRCULATORY SYSTEM: HEMANGIOSARCOMA",active; positive
same,carcinogen call,"Species: RAT, Strain/Sex: F344/FEMALE, Route: ORAL, Dose: 0, 0.15, 0.30% IN DIET FOR 78 WK (STUDY DURATION: 106-110 WK), Dose: 0, 0.15, 0.30% IN DIET FOR 78 WK (STUDY DURATION: 106-110 WK), Tumor Site: Type of Lesion: CIRCULATORY SYSTEM: HEMANGIOSARCOMA, LIVER: HEPATOCELLULAR CARCINOMA, HEPATOCELLULAR CARCINOMA OR NEOPLASTIC NODULE, STO, Tumor Site: Type of Lesion: CIRCULATORY SYSTEM: HEMANGIOSARCOMA, LIVER: HEPATOCELLULAR CARCINOMA, HEPATOCELLULAR CARCINOMA OR NEOPLASTIC NODULE, STO",active; positive
same,carcinogen call,"Species: RAT, Strain/Sex: F344/MALE, Route: ORAL, Dose: 0, 0.15, 0.30% IN DIET FOR 78 WK (STUDY DURATION: 97-110 WK), Dose: 0, 0.15, 0.30% IN DIET FOR 78 WK (STUDY DURATION: 97-110 WK), Tumor Site: Type of Lesion: CIRCULATORY SYSTEM: HEMANGIOSARCOMA, LIVER: HEPATOCELLULAR CARCINOMA OR NEOPLASTIC NODULE, STOMACH: SQUAMOUS CELL CARCIN, Tumor Site: Type of Lesion: CIRCULATORY SYSTEM: HEMANGIOSARCOMA, LIVER: HEPATOCELLULAR CARCINOMA OR NEOPLASTIC NODULE, STOMACH: SQUAMOUS CELL CARCIN",active; positive
CCCCCCCN(C)N=O,carcinogen call,"Species: HAMSTER, Strain/Sex: SYRIAN/FEMALE, Route: GAVAGE, Dose: 0, 6.8 MG/KG 1/WK FOR 40 WK (TOTAL DOSE: 0; 2.1 MMOL) (STUDY DURATION: LIFETIME), Dose: 0, 6.8 MG/KG 1/WK FOR 40 WK (TOTAL DOSE: 0; 2.1 MMOL) (STUDY DURATION: LIFETIME), Tumor Site: Type of Lesion: LIVER: CHOLANGIOMA, LUNG: ALVEOLAR/BRONCHIAL CARCINOMA, ALVEOLAR/BRONCHIAL ADENOMA, ADENOSQUAMOUS CARCINOMA, NASAL MUCOS, Tumor Site: Type of Lesion: LIVER: CHOLANGIOMA, LUNG: ALVEOLAR/BRONCHIAL CARCINOMA, ALVEOLAR/BRONCHIAL ADENOMA, ADENOSQUAMOUS CARCINOMA, NASAL MUCOS",active; positive
same,carcinogen call,"Species: HAMSTER, Strain/Sex: SYRIAN/MALE, Route: GAVAGE, Dose: 0, 6.8 MG/KG 1/WK FOR 40 WK (TOTAL DOSE: 0; 2.1 MMOL) (STUDY DURATION: LIFETIME), Dose: 0, 6.8 MG/KG 1/WK FOR 40 WK (TOTAL DOSE: 0; 2.1 MMOL) (STUDY DURATION: LIFETIME), Tumor Site: Type of Lesion: LIVER: CHOLANGIOMA, HEMANGIOSARCOMA, LUNG: ALVEOLAR/BRONCHIAL CARCINOMA, ALVEOLAR/BRONCHIAL ADENOMA, ADENOSQUAMOUS CARCI",active; positive
FC(F)(F)CCl,carcinogen call,"Species: RAT, Strain/Sex: WISTAR/FEMALE, Route: GAVAGE, Dose: 300 MG/KG IN CORN OIL 5/WK FOR 52 WK, Tumor Site: Type of Lesion: UTERUS: ADENOCARCINOMA",active; positive
same,carcinogen call,"Species: RAT, Strain/Sex: WISTAR/MALE, Route: GAVAGE, Dose: 300 MG/KG IN CORN OIL 5/WK FOR 52 WK, Tumor Site: Type of Lesion: TESTES: INTERSTITIAL CELL TUMOR",active; positive
CNC(=O)ON=CC(C)(C)SC,carcinogen call,"Species: MOUSE, Strain/Sex: B6C3F1/FEMALE, Route: ORAL, Dose: 0, 2, 6 PPM IN DIET, Dose: 0, 2, 6 PPM IN DIET",inactive; negative
same,carcinogen call,"Species: MOUSE, Strain/Sex: B6C3F1/MALE, Route: ORAL, Dose: 0, 2, 6 PPM IN DIET, Dose: 0, 2, 6 PPM IN DIET",inactive; negative
same,carcinogen call,"Species: RAT, Strain/Sex: F344/FEMALE, Route: ORAL, Dose: 0, 2, 6 PPM IN DIET, Dose: 0, 2, 6 PPM IN DIET",inactive; negative
same,carcinogen call,"Species: RAT, Strain/Sex: F344/MALE, Route: ORAL, Dose: 0, 2, 6 PPM IN DIET, Dose: 0, 2, 6 PPM IN DIET",inactive; negative
C[C@]12CC[C@@H]3c4ccc(O)c(O)c4CC[C@H]3[C@@H]1CC[C@@H]2O,carcinogen call,"Species: MOUSE, Strain/Sex: CD-1/FEMALE, Route: SUBCUTANEOUS, Dose: 0, 2 UG/D IN CORN OIL ON DAYS 1-5 OF LIFE (STUDY DURATION: 12-18 WK), Tumor Site: Type of Lesion: UTERUS: ADENOCARCINOMA",active; positive
same,carcinogen call,"Species: Mouse, Strain/Sex: CD-1/Female (45/experimental group; 40/control group), Route: Subcutaneous, Dose: 0, 2 ug in peanut oil, dosed on days 1-5 of life and retained for 1.5 (4 animals), 3 (4 animals), 6 (4 animals), 9 (4 an, Dose: 0, 2 ug in peanut oil, dosed on days 1-5 of life and retained for 1.5 (4 animals), 3 (4 animals), 6 (4 animals), 9 (4 an, Tumor Site: Type of Lesion: Uterus and ovaries examined",inactive; negative; nonneoplastic changes observed
OC[C@@H](O)[C@@H](O)[C@H](O)[C@H](O)CO,carcinogen call,"Species: MOUSE, Strain/Sex: B6C3F1/FEMALE, Route: ORAL, Dose: 0, 2.5, 5% IN THE DIET FOR 103 WK (STUDY DURATION: 103 WK), Dose: 0, 2.5, 5% IN THE DIET FOR 103 WK (STUDY DURATION: 103 WK)",inactive; negative
same,carcinogen call,"Species: MOUSE, Strain/Sex: B6C3F1/FEMALE, Route: ORAL, Dose: 0, 25000, 50000 PPM IN DIET, Dose: 0, 25000, 50000 PPM IN DIET",inactive; negative
same,carcinogen call,"Species: MOUSE, Strain/Sex: B6C3F1/MALE, Route: ORAL, Dose: 0, 2.5, 5% IN THE DIET FOR 103 WK (STUDY DURATION: 103 WK), Dose: 0, 2.5, 5% IN THE DIET FOR 103 WK (STUDY DURATION: 103 WK)",inactive; negative
same,carcinogen call,"Species: MOUSE, Strain/Sex: B6C3F1/MALE, Route: ORAL, Dose: 0, 25000, 50000 PPM IN DIET, Dose: 0, 25000, 50000 PPM IN DIET",inactive; negative
same,carcinogen call,"Species: RAT, Strain/Sex: F344/FEMALE, Route: ORAL, Dose: 0, 2.5, 5% IN THE DIET FOR 103 WK (STUDY DURATION: 103 WK), Dose: 0, 2.5, 5% IN THE DIET FOR 103 WK (STUDY DURATION: 103 WK)",inactive; negative
same,carcinogen call,"Species: RAT, Strain/Sex: F344/FEMALE, Route: ORAL, Dose: 0, 25000, 50000 PPM IN DIET, Dose: 0, 25000, 50000 PPM IN DIET",inactive; negative
same,carcinogen call,"Species: RAT, Strain/Sex: F344/MALE, Route: ORAL, Dose: 0, 2.5, 5% IN THE DIET FOR 103 WK (STUDY DURATION: 103 WK), Dose: 0, 2.5, 5% IN THE DIET FOR 103 WK (STUDY DURATION: 103 WK)",inactive; negative
same,carcinogen call,"Species: RAT, Strain/Sex: F344/MALE, Route: ORAL, Dose: 0, 25000, 50000 PPM IN DIET, Dose: 0, 25000, 50000 PPM IN DIET",inactive; negative
Cc1ccc2cc3c(ccc4ccccc43)c3c2c1CC3O (stereo unspecified),carcinogen call,"Species: RAT, Strain/Sex: SPRAGUE-DAWLEY/FEMALE, Route: SUBCUTANEOUS, Dose: 0, 0.2 UMOL IN 0.1 ML SESAME OIL:DMSO (9:1) 3/WK FOR 20 DOSES (STUDY DURATION: 52 WK), Tumor Site: Type of Lesion: INJECTION SITE: SARCOMA",active; positive
Nc1ccc2c(n1)[nH]c1ccccc12,carcinogen call,"Species: MOUSE, Strain/Sex: CDF1/FEMALE, Route: ORAL, Dose: 0, 0.08% IN DIET FOR UP TO 685 D (STUDY DURATION: 685 D), Tumor Site: Type of Lesion: LIVER: HEPATOCELLULAR ADENOMA OR CARCINOMA, BLOOD VESSELS: HEMANGIOENDOTHELIAL SARCOMA",active; positive
same,carcinogen call,"Species: MOUSE, Strain/Sex: CDF1/MALE, Route: ORAL, Dose: 0, 0.08% IN DIET FOR UP TO 685 D (STUDY DURATION: 685 D), Tumor Site: Type of Lesion: LIVER: HEPATOCELLULAR ADENOMA OR CARCINOMA, BLOOD VESSELS: HEMANGIOENDOTHELIOMA OR HEMANGIOENDOTHELIAL SARCOMA",active; positive
same,carcinogen call,"Species: RAT, Strain/Sex: SPRAGUE-DAWLEY/FEMALE, Route: ORAL, Dose: 0, 75 MG/KG IN 5 ML CORN OIL 1/D ON DAYS 43-47 AND 50-54 OF AGE ADMINISTERED TO RATS PLACED ON HIGH-FAT (23.5% CORN OIL)",inactive; negative
